Earlier results on 1 molecule are cited in paper PMC2866165 (Nuclear medicine and biology, 2010).

One series has as its system PDE3A. Conditions: read-out: IC50 for PDE3A.
In another series the test system is PDE4D. Conditions: read-out: IC50 for PDE4D.

Consider `COc1ccc(Cc2nccc3cc(OC)c(OC)cc23)cc1OC` [Papaverine, 1-(3,4-dimethoxybenzyl)-6,7-dimethoxyisoquinoline], for which the “Biological half-life in rat plasma” value is given as 15 min. Further, the IC50 (commonly the concentration that inhibits the measured activity by half) with PDE3A is 1300 nM. Also, in the series on PDE4D, the IC50 is 320 nM.
